The values below come from patent US10118928B2, “Treatment of H. pylori infections using MTAN inhibitors” (ALBERT EINSTEIN COLLEGE OF MEDICINE, INC., priority 2014, dated 2018).

The first experiment deals with H. pylori. Description: MIC90 against H. pylori, growth on tryptic soy agar with 5% horse blood. The class given is cell-based. The settings on record: Table 1; 72 h, microaerophilic, 37° C. Also noted: unit not given here. Here is the method: Bacterial Growth. H. pylori were grown for 72 hours under microaerophilic condition (5% O2, 10% CO2 and 85% N2) at 37° C. on tryptic soy agar with 5% horse blood. To determine the MIC values, the test substance was added to the gel solution right before pouring. To compare the zones of inhibition, specific antibiotics were added to the center of disc after spreading H. pylori, and then H. pylori was allowed to grow for 72 hours under microaerophilic condition at 37° C.
In the case of `Nc1ncnc2c(CN[C@H](CO)CSc3cnccn3)c[nH]c12`, the “MIC90 against H. pylori” value is 8. As to `CCCCC[C@@H](CO)NCc1c[nH]c2c(N)ncnc12`, the “MIC90 against H. pylori” value came out at 8. For `CCCCCC[C@@H](CO)NCc1c[nH]c2c(N)ncnc12`, the “MIC90 against H. pylori” value turned out to be 8. `CCCCSC[C@@H](CO)NCc1c[nH]c2c(N)ncnc12`: the “MIC90 against H. pylori” value is 16.

On to `CCCC[C@@H](CO)NCc1c[nH]c2c(N)ncnc12`, for which the “MIC90 against H. pylori” value was 16. With `CCC[C@@H](CO)NCc1c[nH]c2c(N)ncnc12`, the “MIC90 against H. pylori” value came to 40. On the same count and under the same terms, the same measure for `CCCCCCCCC[C@@H](CO)NCc1c[nH]c2c(N)ncnc12`: 80; for `Nc1ncnc2c(CN[C@H](CO)CSCc3ccccc3)c[nH]c12`: more than 80. Same read-out and setting: as for `CCCC[C@H](CO)NCc1c[nH]c2c(N)ncnc12`, the figure is more than 80; as for `Nc1ncnc2c(CN[C@H](CO)CSc3ccc(Cl)cc3)c[nH]c12`, more than 80; as for `CSC[C@@H](O)[C@@H](CO)NCc1c[nH]c2c(N)ncnc12`, more than 80. With `C[C@@H](CO)NCc1c[nH]c2c(N)ncnc12`, the “MIC90 against H. pylori” value was more than 80. The same measure, in the same setting: the same measure for `Nc1ncnc2c(CN[C@H](CO)c3ccccc3)c[nH]c12`: more than 80. `CC[C@@H](CO)NCc1c[nH]c2c(N)ncnc12`: the “MIC90 against H. pylori” value was more than 80.

With `CSC[C@H](O)[C@H](CO)NCc1c[nH]c2c(N)ncnc12`, the “MIC90 against H. pylori” value is listed as more than 80.

As for `Nc1ncnc2c(CN[C@H](CO)Cc3c[nH]cn3)c[nH]c12`, the “MIC90 against H. pylori” value is listed as more than 80.

Turning to `CCCCCCCSC[C@@H](CO)NCc1c[nH]c2c(N)ncnc12`, the “MIC90 against H. pylori” value is listed as 80. Consider `CC(C)[C@@H](CO)NCc1c[nH]c2c(N)ncnc12`, for which the “MIC90 against H. pylori” value is listed as more than 80.

Turning to `CC(C)C[C@@H](CO)NCc1c[nH]c2c(N)ncnc12`, the “MIC90 against H. pylori” value is more than 80. For the compound `CSC[C@@H](CO)NCc1c[nH]c2c(N)ncnc12`, the “MIC90 against H. pylori” value was more than 80.

With `CSC[C@H](CO)NCc1c[nH]c2c(N)ncnc12`, the “MIC90 against H. pylori” value is on record as more than 80. Take `CC[C@H](C)[C@@H](CO)NCc1c[nH]c2c(N)ncnc12`: the “MIC90 against H. pylori” value is given as more than 80.

The same experiment, now with this note: Table 2; 72 h, microaerophilic, 37° C.
Consider `CCCCCCCCNCc1c[nH]c2c(N)ncnc12`, for which the “MIC90 against H. pylori” value is on record as more than 80. As to `Nc1ncnc2c(CNCCO)c[nH]c12`, the “MIC90 against H. pylori” value is given as more than 80.
